What was measured:
plasma LH = assay: Intranasal kisspeptin-54, plasma LH in adult C57BL/6J male mice; type: in vivo, mouse; details: for Peak plasma LH level / Integrated LH response, AUC: mean ± SEM; for Peak plasma LH level, mean difference vs placebo: two-way ANOVA; for Integrated LH response, AUC: sampling over 70 min
Protocol: Saline (placebo) or kisspeptin-54 were intranasally administered using a customised and unsharpened 2 mm long and 0.3 mm wide hypodermic needle (BD PrecisionGlide™; 30G; ref. 305106). Male mice were restrained and a single volume of 30 μL of the solution was delivered in one randomly chosen nostril with either 0.9% saline or different concentrations of kisspeptin-54 (1, 3, 12.8, 30, or 50 nM; equivalent to 0.001–0.05 nmol/kg). The protocol involved N = 5 mice per group, except concentrations 12.8 nM where N = 6 and 30 nM where N = 7. […] LH levels were assessed using a tail-tip serial blood sampling as previously reported.[64]^,[65] Briefly, samples containing 4 μL of whole blood were collected every 10 min over a 70-min-long period from each animal. The first sampling point was taken as baseline LH level (−5 min), and saline or kisspeptin-54 were administered at timepoint 0 min. Whole blood was collected into Eppendorf tubes pre-loaded with 50 μL of 0.1 M phosphate-buffered saline (PBS)-0.05% Tween, thoroughly mixed, and snap-frozen with dry ice and stored at −80 °C.
LH levels were measured using an established in-house and ultrasensitive mouse LH ELISA method as previously validated.[66] A primary coating antibody (bovine LHβ subunit, 518B7; L. Sibley; University of California, UC Davis, RRID AB_2756886) was used at a 1:1000 dilution in combination with a detection primary antibody (rabbit LH antiserum, AFP240580Rb, RRID AB_2665533; NIDDK- NHPP) used at 1:10,000 dilution, and a secondary horseradish peroxidase-conjugated antibody (goat anti-rabbit; Vector Laboratories, PI-1000, RRID AB_2336198) used at 1:10,000 dilution. The assay standard curve used a mouse LH-RP (AFP5306A, A. F. Parlow, National Hormone and Peptide Program; supplied by Golden West BioSolutions, California, USA; catalogue # TLIA1053.03). The assay sensitivity of this LH ELISA was 0.04 ng/mL, intra-assay coefficient of variation 4.1%, and inter-assay coefficient of variation 7.3%.
Statistical analyses were performed using GraphPad Prism (version 9.4.1). Data are presented as mean ± SEM. Normality of the data was determined using the Shapiro–Wilk test. The analysis considered increment in LH levels when average post-administration values were above significance (P < 0.05) compared to basal levels (−5 min) using repeated measures two-way ANOVA with Fishers least significant difference (LSD) test. Integrated LH response to kisspeptin-54 administration as indicated using the area under the curve (AUC) analysis when all peaks were above baseline values. The difference in AUC between groups was compared by one-way ANOVA with Fisher’s LSD test. In all cases, P < 0.05 was considered statistically significant.

[1] = parameters: method as in PMID 37467734; details: intravenous and subcutaneous routes, over 1000 healthy men and women and patients; cited from earlier work
serum LH = details: cited from earlier work
Protocol: This was the first study to examine the effects of intranasal kisspeptin administration on reproductive hormone secretion in humans. […] We have previously examined a single intravenous bolus of 6.4, 12.8, and 25.6 nmol/kg of kisspeptin-54 in healthy men.[59] In that study, peak LH levels occurred 4–6 h after intravenous kisspeptin administration with a maximal increase from baseline of 8–10 IU/L for the three doses tested.[59] In the current study, a far more rapid increase in serum LH was observed after intranasal kisspeptin for all four doses tested with peak LH stimulation (4.45 IU/L abo ...

Kisspeptin-54
LH AUC, mean difference vs kisspeptin 1 nM (plasma LH; intranasal 3 nM vs 1 nM): 3.6 ng·h/mL
Time of peak LH level after intranasal administration (plasma LH; intranasal 12.8 nM): 25 min
LH AUC, mean difference vs kisspeptin 1 nM (plasma LH; intranasal 12.8 nM vs 1 nM): 22.7 ng·h/mL
LH AUC, mean difference vs kisspeptin 3 nM (plasma LH; intranasal 12.8 nM vs 3 nM): 19.1 ng·h/mL
LH AUC, mean difference vs placebo (plasma LH; intranasal 12.8 nM vs placebo): 17.2 ng·h/mL
Peak plasma LH level (plasma LH; intranasal 12.8 nM, at 25 min, N = 6): 1.9 ± 0.4 ng/mL
Peak plasma LH level, mean difference vs placebo (plasma LH; intranasal 12.8 nM, at 25 min): 1.1 ng/mL
Time of peak LH level after intranasal administration (plasma LH; intranasal 30 nM): 25 min
LH AUC, mean difference vs kisspeptin 1 nM (plasma LH; intranasal 30 nM vs 1 nM): 74.2 ng·h/mL
LH AUC, mean difference vs kisspeptin 3 nM (plasma LH; intranasal 30 nM vs 3 nM): 70.7 ng·h/mL
LH AUC, mean difference vs kisspeptin 12.8 nM (plasma LH; intranasal 30 nM vs 12.8 nM): 51.6 ng·h/mL
LH AUC, mean difference vs placebo (plasma LH; intranasal 30 nM vs placebo): 68.7 ng·h/mL
Peak plasma LH level (plasma LH; intranasal 30 nM, at 25 min, N = 7): 3.6 ± 0.4 ng/mL
Peak plasma LH level, mean difference vs placebo (plasma LH; intranasal 30 nM, at 25 min): 2.8 ng/mL
Time of peak LH level after intranasal administration (plasma LH; intranasal 50 nM): 15 min
LH AUC, mean difference vs kisspeptin 1 nM (plasma LH; intranasal 50 nM vs 1 nM): 92.8 ng·h/mL
LH AUC, mean difference vs kisspeptin 3 nM (plasma LH; intranasal 50 nM vs 3 nM): 89.3 ng·h/mL
LH AUC, mean difference vs kisspeptin 12.8 nM (plasma LH; intranasal 50 nM vs 12.8 nM): 70.2 ng·h/mL
LH AUC, mean difference vs kisspeptin 30 nM (plasma LH; intranasal 50 nM vs 30 nM): 18.6 ng·h/mL
LH AUC, mean difference vs placebo (plasma LH; intranasal 50 nM vs placebo): 87.3 ng·h/mL
Peak plasma LH level (plasma LH; intranasal 50 nM, at 15 min, N = 5): 4.0 ± 1.0 ng/mL
Peak plasma LH level, mean difference vs placebo (plasma LH; intranasal 50 nM, at 15 min): 2.9 ng/mL
Integrated LH response, AUC (plasma LH; intranasal 30 μL of 1 nM, N = 5): 75.5 ± 6.3 ng·h/mL
Integrated LH response, AUC (plasma LH; intranasal 30 μL of 3 nM, N = 5): 79.1 ± 5.8 ng·h/mL
Integrated LH response, AUC (plasma LH; intranasal 30 μL of 12.8 nM, N = 6): 98.2 ± 15.5 ng·h/mL
Integrated LH response, AUC (plasma LH; intranasal 30 μL of 30 nM, N = 7): 149.7 ± 13.3 ng·h/mL
Integrated LH response, AUC (plasma LH; intranasal 30 μL of 50 nM, N = 5): 168.3 ± 38.5 ng·h/mL
Adverse effects leading to pain, distress, or illness (plasma LH; intranasal, first 72-h follow-up period): did not observe any adverse effects
Adverse effects [1]: without any observed adverse effects
Maximal increase from baseline in LH (serum LH; healthy men, single intravenous bolus of 6.4, 12.8, and 25.6 nmol/kg): 8–10 IU/L
Increase in serum LH, mean (serum LH; healthy volunteers, intravenous, standard deviation 0.4 IU/L): 10.2 IU/L
